Experiments:
yellow nutsedge = test: Test C postemergence; assay type: in vivo, Cyperus esculentus; conditions: for Nutsedge, Yellow plant response rating: 31 g ai/ha; for Nutsedge, Yellow plant response rating / Plant response rating, Nutsedge, Yellow: scale 0 to 100 (0 no effect, 100 complete control)
Summary of the method: (§1)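 Visual ratings on a 0–100 scale (100 = complete control) were made versus untreated controls after 13–15 greenhouse days. Chemicals in a surfactant-containing non-phytotoxic solvent were applied either preemergence to seeds in loam–sand soil or postemergence to 1- to 4-leaf plants 2–18 cm tall.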

sedge, umbrella = test: Test B flooded paddy test; assay type: in vivo, Cyperus difformis; conditions: Flood, 250 g ai/ha; 0 to 100 scale where 0 is no effect and 100 is complete control
Summary of the method: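 Compound added straight to paddy water, with pots kept flooded 3 cm above soil, on plants grown to the 2-leaf stage. Visual scoring 0-100 (100 = complete control) against untreated controls after 13 to 15 greenhouse days.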

oilseed rape = test: Test C postemergence; assay type: in vivo, Brassica napus; conditions: for Oilseed Rape plant response rating: 31 g ai/ha; for Oilseed Rape plant response rating / Plant response rating, Oilseed Rape: scale 0 to 100 (0 no effect, 100 complete control)
Summary of the method: as §1

wheat [1] = test: Test A postemergence; assay type: in vivo, Triticum aestivum; conditions: 0 to 100 scale where 0 is no effect and 100 is complete control; for Wheat plant response rating: 125 g ai/ha; for Plant response rating, Wheat: 500 g ai/ha
Summary of the method: (§2)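 Visual 0–100 rating (100 = complete control) taken about 10 d post-treatment relative to untreated checks. Preemergence: directed soil spray on sown loam/sand pots. Postemergence: seedlings 2–10 cm, 1–2 leaf. Non-phytotoxic solvent formulation with surfactant.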

morningglory [2] = test: Test A preemergence; assay type: in vivo, Ipomoea spp.; conditions: for Morningglory plant response rating (0 to 100 scale): 125 g ai/ha; for Morningglory plant response rating: 500 g ai/ha, 0 to 100 scale where 0 is no effect and 100 is complete control
Summary of the method: as §2

morningglory [3] = test: Test A postemergence; assay type: in vivo, Ipomoea spp.; conditions: 0 to 100 scale where 0 is no effect and 100 is complete control; for Morningglory plant response rating: 125 g ai/ha; for Plant response rating, Morningglory: 500 g ai/ha
Summary of the method: as §2

kochia = test: Test C postemergence; assay type: in vivo, Kochia scoparia; conditions: for Kochia plant response rating: 31 g ai/ha; for Kochia plant response rating / Plant response rating, Kochia: scale 0 to 100 (0 no effect, 100 complete control)
Summary of the method: as §1

barnyardgrass [4] = test: Test C postemergence; assay type: in vivo, Echinochloa crus-galli; conditions: for Barnyardgrass plant response rating: 31 g ai/ha, 13 to 15 days; for Barnyardgrass plant response rating / Plant response rating, Barnyardgrass: scale 0 to 100 (0 no effect, 100 complete control)
Summary of the method: as §1

blackgrass = test: Test C postemergence; assay type: in vivo, Alopecurus myosuroides; conditions: for Blackgrass plant response rating: 31 g ai/ha; for Blackgrass plant response rating / Plant response rating, Blackgrass: scale 0 to 100 (0 no effect, 100 complete control)
Summary of the method: as §1

morningglory [5] = test: Test C postemergence; assay type: in vivo, Ipomoea coccinea; conditions: for Morningglory plant response rating: 31 g ai/ha; for Morningglory plant response rating / Plant response rating, Morningglory: scale 0 to 100 (0 no effect, 100 complete control)
Summary of the method: as §1

wheat [6] = test: Test A preemergence; assay type: in vivo, Triticum aestivum; conditions: for Wheat plant response rating (0 to 100 scale): 125 g ai/ha; for Wheat plant response rating: 500 g ai/ha, 0 to 100 scale where 0 is no effect and 100 is complete control
Summary of the method: as §2

barnyardgrass [7] = test: Test A preemergence; assay type: in vivo, Echinochloa crus-galli; conditions: for Barnyardgrass plant response rating (0 to 100 scale, 0 is no effect, 100 is complete control): 125 g ai/ha; for Barnyardgrass plant response rating: 500 g ai/ha, 0 to 100 scale where 0 is no effect and 100 is complete control
Summary of the method: as §2

large (Lg) crabgrass = test: Test C postemergence; assay type: in vivo, Digitaria sanguinalis; conditions: for Crabgrass, Large plant response rating: 31 g ai/ha; for Crabgrass, Large plant response rating / Plant response rating, Crabgrass, Large: scale 0 to 100 (0 no effect, 100 complete control)
Summary of the method: as §1

johnsongrass = test: Test C postemergence; assay type: in vivo, Sorghum halepense; conditions: for Johnsongrass plant response rating: 31 g ai/ha; for Johnsongrass plant response rating / Plant response rating, Johnsongrass: scale 0 to 100 (0 no effect, 100 complete control)
Summary of the method: as §1

corn = test: Test A preemergence; assay type: in vivo, Zea mays; conditions: for Corn plant response rating (0 to 100 scale): 125 g ai/ha; for Corn plant response rating: 500 g ai/ha, 0 to 100 scale where 0 is no effect and 100 is complete control
Summary of the method: as §2

[8] = postemergence, visual rating, 13 to 15 days
[9] = 125 g ai/ha, postemergence, visual rating
[10] = Postemergence, 62 g ai/ha, 13 to 15 days
[11] = 16 g ai/ha, postemergence, 0 is no effect, 100 is complete control

N#Cc1cnn(-c2c(C#N)cccc2Oc2ncc(Cl)cn2)c1 [Compound 200]
Nutsedge, Yellow plant response rating (yellow nutsedge; [8]): 5
Plant response rating, Nutsedge, Yellow (yellow nutsedge; [9]): 30
Plant response rating (0 to 100), Nutsedge, Yellow (yellow nutsedge; 250 g ai/ha, postemergence): 35
Plant response rating, Nutsedge, Yellow (yellow nutsedge; [10]): 5
Plant response rating, Sedge, Umbrella (sedge, umbrella): 85
Oilseed Rape plant response rating (oilseed rape; [8]): 55
Plant response rating, Oilseed Rape (oilseed rape; [9]): 50
Plant response rating (0 to 100), Oilseed Rape (oilseed rape; 250 g ai/ha, postemergence): 70
Plant response rating, Oilseed Rape (oilseed rape; [10]): 55
Wheat plant response rating (wheat [1]): 40
Plant response rating, Wheat (wheat [1]): 60
Morningglory plant response rating (0 to 100 scale) (morningglory [2]): 90
Morningglory plant response rating (morningglory [2]): 100
Morningglory plant response rating (morningglory [3]): 90
Plant response rating, Morningglory (morningglory [3]): 100
Kochia plant response rating (kochia; [8]): 80
Plant response rating, Kochia (kochia; [9]): 98
Plant response rating (0 to 100), Kochia (kochia; 250 g ai/ha, postemergence): 100
Plant response rating, Kochia (kochia; [10]): 95
Barnyardgrass plant response rating (barnyardgrass [4]; postemergence, visual rating): 0
Plant response rating, Barnyardgrass (barnyardgrass [4]; [9]): 10
Plant response rating (0 to 100), Barnyardgrass (barnyardgrass [4]; 250 g ai/ha, postemergence): 15
Plant response rating, Barnyardgrass (barnyardgrass [4]; Postemergence, 62 g ai/ha): 5
Blackgrass plant response rating (blackgrass; [8]): 5
Plant response rating, Blackgrass (blackgrass; [9]): 10
Plant response rating (0 to 100), Blackgrass (blackgrass; 250 g ai/ha, postemergence): 35
Plant response rating, Blackgrass (blackgrass; [10]): 5
Morningglory plant response rating (morningglory [5]; [8]): 85
Plant response rating, Morningglory (morningglory [5]; [9]): 95
Plant response rating (0 to 100), Morningglory (morningglory [5]; 250 g ai/ha, postemergence): 95
Plant response rating, Morningglory (morningglory [5]; [10]): 80
Wheat plant response rating (0 to 100 scale) (wheat [6]): 30
Wheat plant response rating (wheat [6]): 50
Barnyardgrass plant response rating (0 to 100 scale, 0 is no effect, 100 is complete control) (barnyardgrass [7]): 80
Barnyardgrass plant response rating (barnyardgrass [7]): 90
Crabgrass, Large plant response rating (large (Lg) crabgrass; [8]): 5
Plant response rating, Crabgrass, Large (large (Lg) crabgrass; [9]): 15
Plant response rating (0 to 100), Crabgrass, Large (large (Lg) crabgrass; 250 g ai/ha, postemergence): 20
Plant response rating, Crabgrass, Large (large (Lg) crabgrass; [10]): 5
Johnsongrass plant response rating (johnsongrass; [8]): 5
Plant response rating, Johnsongrass (johnsongrass; [9]): 5
Plant response rating (0 to 100), Johnsongrass (johnsongrass; 250 g ai/ha, postemergence): 30
Plant response rating, Johnsongrass (johnsongrass; [10]): 5
Corn plant response rating (0 to 100 scale) (corn): 40
Corn plant response rating (corn): 50

Clc1cnc(Oc2cccc(Cl)c2-n2cc(Cl)cn2)nc1 [Compound 220]
Plant response rating (0 to 100), Nutsedge, Yellow (yellow nutsedge; [11]): 10
Nutsedge, Yellow plant response rating (yellow nutsedge; [8]): 0
Plant response rating, Nutsedge, Yellow (yellow nutsedge; [9]): 5
Plant response rating, Nutsedge, Yellow (yellow nutsedge; [10]): 0
Plant response rating, Sedge, Umbrella (sedge, umbrella): 90
Plant response rating (0 to 100), Oilseed Rape (oilseed rape; [11]): 50
Oilseed Rape plant response rating (oilseed rape; [8]): 65
Plant response rating, Oilseed Rape (oilseed rape; [9]): 90
Plant response rating, Oilseed Rape (oilseed rape; [10]): 85
Wheat plant response rating (wheat [1]): 10
Plant response rating, Wheat (wheat [1]): 60
Morningglory plant response rating (0 to 100 scale) (morningglory [2]): 0
Morningglory plant response rating (morningglory [2]): 40
Morningglory plant response rating (morningglory [3]): 50
Plant response rating, Morningglory (morningglory [3]): 100
Plant response rating (0 to 100), Kochia (kochia; [11]): 90
Kochia plant response rating (kochia; [8]): 90
Plant response rating, Kochia (kochia; [9]): 95
Plant response rating, Kochia (kochia; [10]): 95
Plant response rating (0 to 100), Barnyardgrass (barnyardgrass [4]; [11]): 5
Barnyardgrass plant response rating (barnyardgrass [4]; postemergence, visual rating): 10
Plant response rating, Barnyardgrass (barnyardgrass [4]; [9]): 15
Plant response rating, Barnyardgrass (barnyardgrass [4]; Postemergence, 62 g ai/ha): 10
Plant response rating (0 to 100), Blackgrass (blackgrass; [11]): 0
Blackgrass plant response rating (blackgrass; [8]): 60
Plant response rating, Blackgrass (blackgrass; [9]): 50
Plant response rating, Blackgrass (blackgrass; [10]): 40
Plant response rating (0 to 100), Morningglory (morningglory [5]; [11]): 15
Morningglory plant response rating (morningglory [5]; [8]): 50
Plant response rating, Morningglory (morningglory [5]; [9]): 50
Plant response rating, Morningglory (morningglory [5]; [10]): 40
Wheat plant response rating (0 to 100 scale) (wheat [6]): 0
Wheat plant response rating (wheat [6]): 20
Barnyardgrass plant response rating (0 to 100 scale, 0 is no effect, 100 is complete control) (barnyardgrass [7]): 60
Barnyardgrass plant response rating (barnyardgrass [7]): 100
Plant response rating (0 to 100), Crabgrass, Large (large (Lg) crabgrass; [11]): 5
Crabgrass, Large plant response rating (large (Lg) crabgrass; [8]): 5
Plant response rating, Crabgrass, Large (large (Lg) crabgrass; [9]): 5
Plant response rating, Crabgrass, Large (large (Lg) crabgrass; [10]): 5
Plant response rating (0 to 100), Johnsongrass (johnsongrass; [11]): 5
Johnsongrass plant response rating (johnsongrass; [8]): 0
Plant response rating, Johnsongrass (johnsongrass; [9]): 5
Plant response rating, Johnsongrass (johnsongrass; [10]): 5
Corn plant response rating (0 to 100 scale) (corn): 0
Corn plant response rating (corn): 10

Source: patent publication US9695155B2, “Herbicidal substituted pyrimidinyloxy benzene compounds” (E. I. DU PONT DE NEMOURS AND COMPANY, priority 2013, dated 2017)
